From US20230364084A1, “METHODS FOR PREVENTING OR TREATING CONDITIONS RELATED TO PIKFYVE ACTIVITY” (The Regents of the University of Michigan, priority 2020, published 2023)

Experiments:
metastatic CRPC (mCRPC) = settings: men with metastatic CRPC; cited from earlier work
[1] = system: prostate cancer cell lines (VCaP, LNCaP, 22RV1, LNCaP-AR, PC3, DU145); experiment: long-term survival assay (14 days, crystal violet); format: cell-based, human; settings: panel of prostate cancer cell lines, two weeks
Procedure: Single cell suspensions were seeded into 96-well plates at a density of 1,000-30,000 cells per well. Long-term survival was determined after 14 days of drug incubation. Viable cells were fixed with 4% formaldehyde and subsequently stained with 1% crystal violet. IC50 was calculated using GraphPad Prism.

[2] = system: DU145 prostate cancer cells; experiment: cell viability screen with a 167-compound tyrosine kinase inhibitor library; format: cell-based, human; settings: 300 nM
Procedure: FIG. 1: ESK981 inhibits the growth of diverse preclinical models of prostate cancer and is associated with a unique vacuolization morphology. • (a) The percentage viabilities of DU145 cells treated with 300 nM ESK981 or 167 other tyrosine kinase inhibitors when compared to a vehicle control. The top five most inhibitory compounds, as well as cabozantinib and crizotinib (highlighted in orange), and their respective targets are listed in the table. ESK981 is highlighted in red. • (b) Morphological differences of nuclear-restricted RFP-expressing DU145 cells treated with 300 nM ESK981, crizotinib, or cabozantinib. • (c) A long-term survival assay was used to calculate the half-maximum inhibitory concentration (IC50) after two weeks of incubation with the serial dilutions of indicated drugs. (Top) Long-term survival assays of VCaP prostate cancer cells exposed to MTKIs. (Bottom) IC50 of ESK981, crizotinib, and cabozantinib in a panel of prostate cancer cell lines. • (d) ESK981 was effective against enzalutamide (Enza)-resistant cell lines. […] Long-term survival (two weeks) was assayed by absorbance of crystal violet at OD590. • (e) VCaP-RFP cells were cultured for three days in ultralow attachment plates to form 3D tumor spheroids prior to the indicated drug treatments. […] Fluorescence intensity of 3D spheroids was measured by IncuCyte ZOOM. • (f) Castration-resistant VCaP tumors were established subcutaneously in castrated SCID mice, and mice were randomized into three groups, which received vehicle, 30 mg/kg, or 60 mg/kg ESK981 by oral gavage once per day for the indicated dosing schedule. Tumor volumes were monitored by a digital caliper twice per week. Data were analyzed by unpaired t test and presented as mean±SEM. *p<0.05; **p<0.01. • (g) AR^+ prostate patient-derived xenograft (PDX) MDA-PCa-146-12 were implanted subcutaneously in non-castrated SCID mice, and mice were randomized into two groups receiving either once daily vehicle or 30 mg/kg ESK981 for five days each week. […] Tumor volumes were monitored twice per week. […]

[3] = system: LC3-II in prostate cancer cell lines; experiment: LC3 lipidation western blot; format: cell-based, human; settings: VCaP cells, 24 hours
Procedure: Cell lysates were harvested in Pierce RIPA Lysis buffer (Thermo Scientific) containing protease inhibitor cocktail tablets (Roche) and phosphatase inhibitor cocktail (Millipore). Protein concentration was measured using the DC Protein Assay (Bio-Rad) to ensure an equal amount of protein was loaded onto a gel. The denatured lysates were separated on NuPage 4-12% Bis-Tris Midi Protein gels (Novex) and transferred to 0.45-μm PVDF transfer membrane (Immobilon) using a TransBlot Turbo dry transfer machine (Bio-Rad). The membrane was incubated in blocking buffer (5% non-fat dry milk, Tris-buffered saline with 0.1% Tween 20) for 1 hour at room temperature. The membrane was then incubated with the listed antibodies for 1 hour at room temperature, followed by overnight incubation at 4° C. Chemiluminescent detection using ECL Prime (Amersham) and HyBlot CL autoradiography film (Denville Scientific) was used to visualize the blots. Antibodies used in the immunoblotting assays were against ATG5 (Cat No. 12994S, Cell Signaling Technology), ATG7 (Cat No. 8558S, Cell Signaling Technology), ULK1 (Cat No. 8054S, Cell Signaling Technology), Beclin1 (Cat No. 4122S, Cell Signaling Technology), FIP200 (Cat No. 12436S, Cell Signaling Technology), LC3A/B (Cat No. 127415, Cell Signaling Technology), PIKfyve (Cat No. AF7885, R&D Systems), and GAPDH (Cat No. 3683S, Cell Signaling Technology).

advanced prostate cancer = settings: two phase III trials; cited from earlier work
[4] = system: GFP-LC3-RFP-LC3ΔG-expressing Myc-CaP cells; experiment: autophagic flux detection in Myc-CaP cells; format: cell-based, mouse; settings: 24 hours
Procedure: (§1) For autophagic flux detection, 10,000 cells were plated in 96-well plates and incubated with various compounds in complete medium for 24 hours. GFP and RFP fluorescence intensities were measured on a TECAN M1000 plate reader.

DU145 cells = experiment: cellular vacuolization morphology with autophagy inhibitors; format: cell-based, human; settings: combination with ESK981, six hours
From the text: The nature of the ESK981-associated cellular vacuolization was investigated in combination with various autophagic pathway inhibitors.

[5] = system: B cell non-Hodgkin's lymphoma; settings: cited from earlier work
CXCL10 in VCaP cells = experiment: human CXCL10 ELISA of conditioned medium; format: cell-based; settings: VCaP cells, 24 hours
Procedure: Conditioned medium was collected after 24 hours of drug incubation. ELISA was performed using a human CXCL10 ELISA kit (Cat No. KAC2361, ThermoFisher), or a mouse CXCL10 ELISA kit (Cat No. ab214563, Abcam) according to the manufacturer's instructions.

PC3 and DU145 cells = experiment: autophagic flux detection (GFP-LC3-RFP-LC3ΔG probe); format: cell-based, human; settings: PC3 or DU145 cells, 24 hours
Procedure: as §1

[6] = system: lysosomes in VCaP, LNCaP, PC3 and DU145 cells; experiment: LysoTracker Green flow cytometry; format: cell-based, human; settings: bafilomycin A1 100 nM with ESK981 300 nM, 24 hours
Procedure: Cells were grown in 6-well plates and treated with various drugs. After 24 hours, cells were stained with LysoTracker® Green DND-26 (Invitrogen), and green fluorescence signal was analyzed by flow cytometry.

pembrolizumab: PD-1 inhibitor
response rates (metastatic CRPC (mCRPC)): 3-5%

C[C@@H](Oc1cc(-c2cnn(C3CCNCC3)c2)cnc1N)c1c(Cl)ccc(F)c1Cl [crizotinib, reference compound]
IC50 in words [1]: micromolar | growth inhibition (cell viability) [2]: no such growth inhibitory effects | induction of LC3-II ([3]; 300 nM): did not induce an increase in LC3-II | induction of LC3-II ([3]; 1 μM): only weakly induced an increase in LC3-II

ipilimumab: CTLA4 inhibitor
overall survival (advanced prostate cancer): failed to improve overall survival

CCN(CC)CCCC(C)Nc1ccnc2cc(Cl)ccc12 (centres unmarked) [chloroquine]
autophagic flux [4]: inhibited | effect on the cellular vacuolization effects of ESK981 (DU145 cells): completely blocked

Cc1cccc(/C=N/Nc2cc(N3CCOCC3)nc(OCCc3ccccn3)n2)c1 [apilimod]
tumor inhibition [5]: tumor inhibitory effects

Nc1ccn([C@@H]2O[C@H](CO)[C@@H](O)C2(F)F)c(=O)n1 [gemcitabine]
CXCL10 induction / secretion (CXCL10 in VCaP cells): robust CXCL10 inducer

CCC(=O)N1CCN(c2ccc(-n3c(=O)ccc4cnc5ccc(-c6cnc7ccccc7c6)cc5c43)cc2C(F)(F)F)CC1 [Torin1]
autophagic flux (GFP/RFP ratio) (PC3 and DU145 cells): decreased the GFP/RFP ratio | CXCL10 induction / secretion (CXCL10 in VCaP cells): marginally increased CXCL10 secretion, but only at higher concentrations

CO/C1=C\C(C)=C\[C@@H](C)[C@@H](O)[C@@H](C)C/C(C)=C/C=C/[C@H](OC)[C@@H]([C@@H](C)[C@@H](O)[C@H](C)[C@@]2(O)C[C@@H](O)[C@H](C)[C@@H](C(C)C)O2)OC1=O [bafilomycin A1]
autophagic flux [4]: inhibited | autophagic flux (GFP/RFP ratio) (PC3 and DU145 cells): low autophagic flux | effect on the cellular vacuolization effects of ESK981 (DU145 cells): completely blocked | effect on the ESK981-increased lysosome quantity [6]: readily neutralized

Cn1cnc(N)c2ncnc1-2 [3-methyladenine]
effect on the cellular vacuolization effects of ESK981 (DU145 cells): partially negated
